Experimental data taken from patent US11813340B2, “PSMA targeted radiohalogenated urea-polyaminocarboxylates for cancer radiotherapy” (The Johns Hopkins University, priority 2018, dated 2023).
Where two headings read alike, the source gives them in different places.

How the values were obtained:
[1] = test system: PSMA + PC3-PIP and PSMA-PC3-flu flank xenografts; conditions: no blocker, inhibitors reported in WO2017070482, cited from earlier work
[2] = test system: preclinical models of human prostate cancer (PC); conditions: Kiess et al., 2016, cited from earlier work
[3] = test system: PSMA + PC3-PIP and PSMA-PC3-flu flank xenografts; assay: Biodistribution of At-211 labeled PSMA inhibitors with and without cold blocking agent (Tables 6-8); assay type: in vivo, athymic mice; conditions: mice
[4] = test system: PSMA + PC3-PIP and PSMA-PC3-flu flank xenografts; conditions: without cold blocking agent
Description: Final compounds were purified by HPLC. […] Organs were harvested 1, 4, and 24 h post-injection (n=5 per time point).

[5] = test system: PSMA+PC3-PIP and PSMA-PC3-flu flank xenografts; assay: Biodistribution of [125I/211At]2 and 3 with and without co-injection of DCIBzL (Example 6); assay type: in vivo, athymic mice; conditions: no co-injection
From the text: Final compounds were purified by HPLC.

[6] = test system: PiP (tumor) and Flu (tumor); assay: Biodistribution of [125I]VK-03-03 and [125I]VK-03-03-Lu in mice (Table 9); assay type: in vivo

O=C(O)CC[C@H](NC(=O)NC(CCCCNC(=O)c1ccc([211At])cc1)C(=O)O)C(=O)O (stereo partly drawn) [YC-I-27, (2S)-2-(3-(1-Carboxy-5-(4-211At-Astatobenzamido)Pentyl)Ureido)-Pentanedioic Acid]
Biodistribution, Blood ([1]; 1 Hour): 1.7 ± 0.3 % injected dose/g
Biodistribution, Flu tumor ([1]; 1 Hour): 2.2 ± 0.4 % injected dose/g
Biodistribution, PIP tumor ([1]; 1 Hour): 17.9 ± 3.0 % injected dose/g
Biodistribution, Spleen ([1]; 1 Hour): 29 ± 10 % injected dose/g
Biodistribution, Stomach ([1]; 1 Hour): 10.1 ± 1.7 % injected dose/g
Biodistribution, kidney ([1]; 1 Hour): 71 ± 12 % injected dose/g
Biodistribution, thyroid ([1]; 1 Hour): 3.7 ± 1.1 % injected dose/g
Biodistribution, Blood ([1]; 4 H): 1.0 ± 0.1 % injected dose/g
Biodistribution, Flu tumor ([1]; 4 H): 1.5 ± 0.2 % injected dose/g
Biodistribution, Spleen ([1]; 4 H): 20.3 ± 3.6 % injected dose/g
Biodistribution, kidney ([1]; 4 H): 60 ± 12 % injected dose/g
Biodistribution, thyroid ([1]; 4 H): 3.8 ± 1.2 % injected dose/g
Biodistribution, Blood ([1]; 21-24 Hour (footnote a)): 0.5 ± 0.05 % injected dose/g
Biodistribution, Flu tumor ([1]; 21-24 Hour (footnote a)): 1.2 ± 0.2 % injected dose/g
Biodistribution, PIP tumor ([1]; 21-24 Hour (footnote a)): 31.1 ± 9.8 % injected dose/g
Biodistribution, Spleen ([1]; 21-24 Hour (footnote a)): 8.0 ± 2.0 % injected dose/g
Biodistribution, Stomach ([1]; 21-24 Hour (footnote a)): 9.4 ± 3.0 % injected dose/g
Biodistribution, kidney ([1]; 21-24 Hour (footnote a)): 57.4 ± 7.4 % injected dose/g
Biodistribution, thyroid ([1]; 21-24 Hour (footnote a)): 6.5 ± 2.0 % injected dose/g
efficacy as PSMA-targeted radiopharmaceutical therapy (RPT) agent [2]: high efficacy
renal toxicity ([2]; due to high uptake and long retention in kidney): caused renal failure

O=C(O)CC[C@H](NC(=O)N[C@@H](CCCCN(Cc1ccc([211At])cc1)C(=O)CCCCNC(=O)CN1CCN(CC(=O)O)CCN(CC(=O)O)CCN(CC(=O)O)CC1)C(=O)O)C(=O)O [[^211At]VK-02-90]
radioactivity in the stomach [3]: very low
stability in-vivo [3]: stable in-vivo

O=C(O)CC[C@H](NC(=O)N[C@@H](CCCCN(Cc1ccc([125I])cc1)C(=O)CCCCNC(=O)CN1CCN(CC(=O)O)CCN(CC(=O)O)CCN(CC(=O)O)CC1)C(=O)O)C(=O)O [[^125I]VK-02-90]
Biodistribution, Blood ([4]; 1 H): 1.1 ± 0.3 % injected dose/g
Biodistribution, Flu tumor ([4]; 1 H): 1.4 ± 0.6 % injected dose/g
Biodistribution, Kidneys ([4]; 1 H): 194 ± 25 % injected dose/g
Biodistribution, Lacrimal glands ([4]; 1 H): 17.4 ± 6.0 % injected dose/g
Biodistribution, Pip (tumor) ([4]; 1 H): 58 ± 14 % injected dose/g
Biodistribution, Salivary glands ([4]; 1 H): 5.1 ± 3.4 % injected dose/g
Biodistribution, Spleen ([4]; 1 H): 40.2 ± 16.4 % injected dose/g
Biodistribution, Stomach ([4]; 1 H): 1.1 ± 0.3 % injected dose/g
Biodistribution, Blood ([4]; 4 H): 0.2 ± 0.03 % injected dose/g
Biodistribution, Flu tumor ([4]; 4 H): 0.3 ± 0.06 % injected dose/g
Biodistribution, Kidneys ([4]; 4 H): 162 ± 36 % injected dose/g
Biodistribution, Lacrimal glands ([4]; 4 H): 1.9 ± 0.45 % injected dose/g
Biodistribution, Pip (tumor) ([4]; 4 H): 38 ± 13 % injected dose/g
Biodistribution, Salivary glands ([4]; 4 H): 0.7 ± 0.2 % injected dose/g
Biodistribution, Spleen ([4]; 4 H): 4.7 ± 1.2 % injected dose/g
Biodistribution, Stomach ([4]; 4 H): 0.4 ± 0.2 % injected dose/g
Biodistribution, Blood ([4]; 24 H): 0.02 ± 0.01 % injected dose/g
Biodistribution, Flu tumor ([4]; 24 H): 0.04 ± 0.02 % injected dose/g
Biodistribution, Kidneys ([4]; 24 H): 30.6 ± 14.0 % injected dose/g
Biodistribution, Lacrimal glands ([4]; 24 H): 0.5 ± 0.2 % injected dose/g
Biodistribution, Pip (tumor) ([4]; 24 H): 51 ± 7 % injected dose/g
Biodistribution, Salivary glands ([4]; 24 H): 0.3 ± 0.3 % injected dose/g
Biodistribution, Spleen ([4]; 24 H): 0.7 ± 0.4 % injected dose/g
Biodistribution, Stomach ([4]; 24 H): 0.05 ± 0.03 % injected dose/g
retention of radioactivity, lacrimal glands (LG) ([5]; 1h): 17.4±6.0 % ID/g
retention of radioactivity, salivary glands (SG) ([5]; 1h): 5.1±3.4 % ID/g
retention of radioactivity, kidneys (K) ([5]; 4 h): 162±36 % ID/g
retention of radioactivity, kidneys (K) ([5]; 24 h): 30.6±14.0 % ID/g

O=C(O)CC[C@H](NC(=O)N[C@@H](CCCCN(Cc1ccc(Br)cc1)C(=O)CCCCNC(=O)c1cc([125I])cc(C(=O)NCCNC(=O)CN2CCN(CC(=O)O)CCN(CC(=O)O)CCN(CC(=O)O)CC2)c1)C(=O)O)C(=O)O [[^125I]VK-03-03]
Biodistribution Data, Flu (tumor) ([6]; 1 H): 2.0 ± 0.7
Biodistribution Data, PiP (tumor) ([6]; 1 H): 44.7 ± 12.2
Biodistribution Data, bladder ([6]; 1 H): 5.0 ± 2.9
Biodistribution Data, blood ([6]; 1 H): 1.6 ± 0.26
Biodistribution Data, fat ([6]; 1 H): 3.2 ± 0.7
Biodistribution Data, heart ([6]; 1 H): 1.6 ± 0.5
Biodistribution Data, kidney ([6]; 1 H): 132 ± 18.5
Biodistribution Data, lacrimal gland ([6]; 1 H): 25.4 ± 4.1
Biodistribution Data, large intestine ([6]; 1 H): 1.2 ± 0.06
Biodistribution Data, liver ([6]; 1 H): 0.9 ± 0.15
Biodistribution Data, lung ([6]; 1 H): 4.5 ± 0.6
Biodistribution Data, muscle ([6]; 1 H): 1.0 ± 0.2
Biodistribution Data, pancreas ([6]; 1 H): 1.8 ± 0.27
Biodistribution Data, salivary gland ([6]; 1 H): 5.0 ± 0.86
Biodistribution Data, small intestine ([6]; 1 H): 0.76 ± 0.13
Biodistribution Data, spleen ([6]; 1 H): 70.0 ± 20.4
Biodistribution Data, stomach ([6]; 1 H): 1.0 ± 0.12
Biodistribution Data, Flu (tumor) ([6]; 4 H): 1.2 ± 0.28
Biodistribution Data, PiP (tumor) ([6]; 4 H): 57.0 ± 15.9
Biodistribution Data, bladder ([6]; 4 H): 2.4 ± 0.5
Biodistribution Data, blood ([6]; 4 H): 0.49 ± 0.08
Biodistribution Data, fat ([6]; 4 H): 4.1 ± 1.5
Biodistribution Data, heart ([6]; 4 H): 0.9 ± 0.03
Biodistribution Data, kidney ([6]; 4 H): 165 ± 14.4
Biodistribution Data, lacrimal gland ([6]; 4 H): 15.8 ± 4.9
Biodistribution Data, large intestine ([6]; 4 H): 0.58 ± 0.19
Biodistribution Data, liver ([6]; 4 H): 0.4 ± 0.2
Biodistribution Data, lung ([6]; 4 H): 2.3 ± 0.3
Biodistribution Data, muscle ([6]; 4 H): 0.64 ± 0.22
Biodistribution Data, pancreas ([6]; 4 H): 1.5 ± 0.05
Biodistribution Data, salivary gland ([6]; 4 H): 3.5 ± 0.4
Biodistribution Data, small intestine ([6]; 4 H): 0.37 ± 0.08
Biodistribution Data, spleen ([6]; 4 H): 37.4 ± 8.9
Biodistribution Data, stomach ([6]; 4 H): 0.95 ± 0.7
Biodistribution Data, Flu (tumor) ([6]; 24 H): 0.2 ± 0.09
Biodistribution Data, PiP (tumor) ([6]; 24 H): 54.1 ± 6.3
Biodistribution Data, bladder ([6]; 24 H): 1.6 ± 0.75
Biodistribution Data, blood ([6]; 24 H): 0.09 ± 0.02
Biodistribution Data, fat ([6]; 24 H): 0.37 ± 0.28
Biodistribution Data, heart ([6]; 24 H): 0.17 ± 0.08
Biodistribution Data, kidney ([6]; 24 H): 141 ± 18.3
Biodistribution Data, lacrimal gland ([6]; 24 H): 2.6 ± 0.76
Biodistribution Data, large intestine ([6]; 24 H): 0.11 ± 0.06
Biodistribution Data, liver ([6]; 24 H): 0.09 ± 0.02
Biodistribution Data, lung ([6]; 24 H): 0.58 ± 0.2
Biodistribution Data, muscle ([6]; 24 H): 0.1 ± 0.05
Biodistribution Data, pancreas ([6]; 24 H): 0.26 ± 0.07
Biodistribution Data, salivary gland ([6]; 24 H): 0.6 ± 0.16
Biodistribution Data, small intestine ([6]; 24 H): 0.08 ± 0.03
Biodistribution Data, spleen ([6]; 24 H): 4.9 ± 2.7
Biodistribution Data, stomach ([6]; 24 H): 0.18 ± 0.06
clearance of radioactivity in the kidneys ([6]; mouse, in vivo): does not clear over time
tumor uptake ([6]; mouse, in vivo): high and prolonged tumor uptake
